Results taken from patent US6737383B1, “Herbicidal oxadiazolidines” (priority 1999, dated 2004).

What was measured:
bedstraw = assay: Test B pre/postemergence bedstraw; assay type: in vivo, Galium aparine
How it was run: (§1)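 Test chemicals in a non-phytotoxic solvent mixture with surfactant were sprayed preemergence onto planted seeds and postemergence onto plants 2 to 18 cm tall (1- to 4-leaf stage). After twelve to sixteen days in a greenhouse, injury was visually rated against untreated controls from 0 (no effect) to 10 (complete control).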

blackgrass = assay: Test B pre/postemergence blackgrass; assay type: in vivo, Alopecurus myosuroides
How it was run: as §1

surinam grass = assay: Test B pre/postemergence surinam grass; assay type: in vivo, Brachiaria decumbens
How it was run: as §1

corn = assay: Test B pre/postemergence corn; assay type: in vivo, Zea mays
How it was run: as §1

crabgrass = assay: Test B pre/postemergence crabgrass; assay type: in vivo, Digitaria sanguinalis
How it was run: as §1

giant foxtail = assay: Test B pre/postemergence giant foxtail; assay type: in vivo, Setaria faberii
How it was run: as §1

morningglory = assay: Test B pre/postemergence morningglory; assay type: in vivo, Ipomoea hederacea
How it was run: as §1

pigweed = assay: Test B pre/postemergence pigweed; assay type: in vivo, Amaranthus retroflexus
How it was run: as §1

rape = assay: Test B pre/postemergence rape; assay type: in vivo, Brassica napus
How it was run: as §1

soybean = assay: Test B pre/postemergence soybean; assay type: in vivo, Glycine max
How it was run: as §1

velvetleaf = assay: Test B pre/postemergence velvetleaf; assay type: in vivo, Abutilon theophrasti
How it was run: as §1

wheat = assay: Test B pre/postemergence wheat; assay type: in vivo, Triticum aestivum
How it was run: as §1

wild oat = assay: Test B pre/postemergence wild oat; assay type: in vivo, Avena fatua
How it was run: as §1

purple nutsedge = assay: Test B pre/postemergence purple nutsedge; assay type: in vivo, Cyperus rotundus
How it was run: as §1

rice = assay: Test B flood test rice; assay type: in vivo, Oryza sativa
How it was run: (§2)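 Plants were grown to the 2-leaf stage before treatment with test chemical, then held in a greenhouse for twelve to sixteen days. Injury was visually rated against untreated controls on a 0–10 scale, where 0 is no effect and 10 is complete control.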

duck salad = assay: Test B flood test duck salad; assay type: in vivo, Heteranthera limosa
How it was run: as §2

[1] = Postemergence, Rate 62 g/ha, scale 0 to 10, 0 is no effect, 10 is complete control
[2] = Postemergence, Rate 250 g/ha, scale 0 to 10, 0 no effect, 10 complete control
[3] = Preemergence, Rate 31 g/ha, visual rating, scale 0 to 10 (0 no effect, 10 complete control)
[4] = Preemergence, Rate 62 g/ha, scale 0 to 10, 0 is no effect, 10 is complete control
[5] = Preemergence, Rate 125 g/ha, scale 0 to 10 (0 no effect, 10 complete control)
[6] = Preemergence, Rate 250 g/ha, scale of 0 to 10 where 0 is no effect and 10 is complete control
[7] = Rate 31 g/ha, Postemergence, scale 0 to 10
[8] = Rate 125 g/ha, Postemergence, scale 0 to 10, 0 no effect, 10 complete control
[9] = Rate 125 g/ha, Postemergence section (flood test species), scale 0 to 10, 0 no effect, 10 complete control
[10] = Rate 500 g/ha, Postemergence section of Table B, 0 to 10 scale (0 no effect, 10 complete control)
[11] = flood test, listed under Postemergence, Rate 250 g/ha, scale 0 to 10, 0 no effect, 10 complete control

COc1ccccc1-n1c(=O)on(C(=O)N(c2ccc(F)cc2F)C(C)C)c1=O [Compound 31]
3: Morningglory plant response rating (morningglory; [2]) | Plant response rating, Redroot pigweed (pigweed; [6])
2: Plant response rating, Blackgrass (blackgrass; [5]) | Plant response rating, Blackgrass (blackgrass; [6]) | Crabgrass plant response rating (crabgrass; [3]) | Crabgrass plant response rating (crabgrass; [8]) | Plant response rating, Wild oats (wild oat; [5])
9: Blackgrass plant response rating (blackgrass; [2]) | Crabgrass plant response rating (crabgrass; [2]) | Plant response rating, Crabgrass (crabgrass; [4]) | Plant response rating, Crabgrass (crabgrass; [5]) | Plant response rating, Crabgrass (crabgrass; [6])
8: Plant response rating, Giant foxtail (giant foxtail; [5]) | Plant response rating, Giant foxtail (giant foxtail; [6])
4: Blackgrass plant response rating (blackgrass; [8]) | Giant foxtail plant response rating (giant foxtail; [2]) | Plant response rating, Rape (rape; [6]) | Plant response rating, Wild oats (wild oat; [6])
0: Bedstraw plant response rating (bedstraw; [1]) | Bedstraw plant response rating (bedstraw; [2]) | Bedstraw plant response rating (bedstraw; [3]) | Plant response rating, Bedstraw (bedstraw; [4]) | Plant response rating, Bedstraw (bedstraw; [5]) | Plant response rating, Bedstraw (bedstraw; [6]) | Bedstraw plant response rating (bedstraw; [7]) | Bedstraw plant response rating (bedstraw; [8]) | Blackgrass plant response rating (blackgrass; [1]) | Blackgrass plant response rating (blackgrass; [3]) | Plant response rating, Blackgrass (blackgrass; [4]) | Blackgrass plant response rating (blackgrass; [7]) | B. signalgrass plant response rating (surinam grass; [1]) | B. signalgrass plant response rating (surinam grass; [2]) | B. signalgrass plant response rating (surinam grass; [3]) | Plant response rating, B. signalgrass (surinam grass; [4]) | Plant response rating, B. signalgrass (surinam grass; [5]) | B. signalgrass plant response rating (surinam grass; [7]) | B. signalgrass plant response rating (surinam grass; [8]) | Corn plant response rating (corn; [1]) | Corn plant response rating (corn; [2]) | Corn plant response rating (corn; [3]) | Plant response rating, Corn (corn; [4]) | Plant response rating, Corn (corn; [5]) | Plant response rating, Corn (corn; [6]) | Corn plant response rating (corn; [7]) | Corn plant response rating (corn; [8]) | Crabgrass plant response rating (crabgrass; [1]) | Crabgrass plant response rating (crabgrass; [7]) | Giant foxtail plant response rating (giant foxtail; [1]) | Giant foxtail plant response rating (giant foxtail; [7]) | Giant foxtail plant response rating (giant foxtail; [8]) | Morningglory plant response rating (morningglory; [1]) | Morningglory plant response rating (morningglory; [3]) | Plant response rating, Morningglory (morningglory; [4]) | Plant response rating, Morningglory (morningglory; [5]) | Plant response rating, Morningglory (morningglory; [6]) | Morningglory plant response rating (morningglory; [7]) | Redroot pigweed plant response rating (pigweed; [1]) | Redroot pigweed plant response rating (pigweed; [2]) | Redroot pigweed plant response rating (pigweed; [3]) | Plant response rating, Redroot pigweed (pigweed; [4]) | Plant response rating, Redroot pigweed (pigweed; [5]) | Redroot pigweed plant response rating (pigweed; [7]) | Redroot pigweed plant response rating (pigweed; [8]) | Rape plant response rating (rape; [1]) | Rape plant response rating (rape; [2]) | Rape plant response rating (rape; [3]) | Plant response rating, Rape (rape; [4]) | Plant response rating, Rape (rape; [5]) | Rape plant response rating (rape; [7]) | Rape plant response rating (rape; [8]) | Soybean plant response rating (soybean; [3]) | Plant response rating, Soybean (soybean; [4]) | Plant response rating, Soybean (soybean; [5]) | Plant response rating, Soybean (soybean; [6]) | Velvetleaf plant response rating (velvetleaf; [1]) | Velvetleaf plant response rating (velvetleaf; [2]) | Velvetleaf plant response rating (velvetleaf; [3]) | Plant response rating, Velvetleaf (velvetleaf; [4]) | Plant response rating, Velvetleaf (velvetleaf; [5]) | Plant response rating, Velvetleaf (velvetleaf; [6]) | Velvetleaf plant response rating (velvetleaf; [8]) | Wheat plant response rating (wheat; [1]) | Wheat plant response rating (wheat; [2]) | Wheat plant response rating (wheat; [3]) | Plant response rating, Wheat (wheat; [4]) | Plant response rating, Wheat (wheat; [5]) | Plant response rating, Wheat (wheat; [6]) | Wheat plant response rating (wheat; [8]) | Wild oats plant response rating (wild oat; [1]) | Wild oats plant response rating (wild oat; [2]) | Wild oats plant response rating (wild oat; [3]) | Wild oats plant response rating (wild oat; [8]) | Nutsedge plant response rating (purple nutsedge; [1]) | Nutsedge plant response rating (purple nutsedge; [2]) | Nutsedge plant response rating (purple nutsedge; [3]) | Plant response rating, Nutsedge (purple nutsedge; [4]) | Plant response rating, Nutsedge (purple nutsedge; [5]) | Plant response rating, Nutsedge (purple nutsedge; [6]) | Nutsedge plant response rating (purple nutsedge; [7]) | Nutsedge plant response rating (purple nutsedge; [8]) | Rice plant response rating (rice; [1]) | Rice plant response rating (rice; [9]) | Rice plant response rating (rice; [10]) | Rice plant response rating (rice; [11]) | Ducksalad plant response rating (duck salad; [1]) | Ducksalad plant response rating (duck salad; [9]) | Ducksalad plant response rating (duck salad; [10]) | Ducksalad plant response rating (duck salad; [11])
6: Plant response rating, B. signalgrass (surinam grass; [6]) | Plant response rating, Giant foxtail (giant foxtail; [4])
1: Giant foxtail plant response rating (giant foxtail; [3]) | Morningglory plant response rating (morningglory; [8]) | Soybean plant response rating (soybean; [1]) | Soybean plant response rating (soybean; [2]) | Soybean plant response rating (soybean; [8])
